From patent US4062934A, “X-ray contrast media” (Laboratoires Andre Guerbet, priority 1975, dated 1977)

What was measured:
[1] = Osmolality of aqueous solutions containing 28% iodine; type: physicochemical; conditions: aqueous solution
[2] = test system: mice; assay: LD50, I.V., in mice; type: in vivo; conditions: aqueous solution containing 28% iodine
[3] = Neurotoxicity, intra-cisternal injection in rats (technique according to E. Melartin); conditions: in vivo, at 50 mg I/rat, read-out: Neurotoxicity: death rate, intra-cisternal injection in rats
Text: *Technique according to E. Melartin (Investigative Radiology, 1970, 5, 1,

[4] = Neurotoxicity, intra-cerebral injection in mice (technique according to Haley and MacCornick); conditions: mouse, in vivo, 700 mg/kg, at 700 mg I/kg, read-out: Neurotoxicity: death rate, intra-cerebral injection in mice
Text: **Technique according to Haley and MacCornick (British Journal

[5] = Viscosity of aqueous solution; type: physicochemical; conditions: 25 g iodine per 100 ml, 37° C
Procedure: The product is dissolved in water at a concentration of 25 g iodine per 100 ml. The solution has a viscosity of 7.4 centipoises at 37° C.

With `CC(=O)N(C)c1c(I)c(NC(=O)[C@H](O)[C@@H](O)[C@H](O)[C@H](O)CO)c(I)c(C(=O)NNC(=O)c2c(I)c(NC(=O)[C@H](O)[C@@H](O)[C@H](O)[C@H](O)CO)c(I)c(N(C)C(C)=O)c2I)c1I` [II, N,N'-bis(2,4,6-triiodo-3-N-methyl-N-acetylamino-5-N-gluconylamino-benzoyl)hydrazide] as the molecule, how does the Osmolality [1] read?
Its Osmolality is 204 mosm/kg.

What about the “LD50, I.V., in mice” value [2] of the same molecule?
The value was 6 g I/kg.

Which results are given for `CC(=O)N(C)c1c(I)c(NC(=O)[C@H](O)[C@@H](O)[C@H](O)[C@H](O)CO)c(I)c(C(=O)NCCNC(=O)c2c(I)c(NC(=O)[C@H](O)[C@@H](O)[C@H](O)[C@H](O)CO)c(I)c(N(C)C(C)=O)c2I)c1I` [I, 1,2-N,N'-bis(2,4,6-triiodo-3-N-methyl-N-acetylamino-5-N-gluconylamino-benzoyl)-diamino-ethane]?
Osmolality [1]: 200 mosm/kg; mortality [3]: 0%; LD50, I.V., in mice [2]: 15 g I/kg; mortality [4]: 0%; viscosity [5]: 7.4 centipoises

Which Osmolality [1] does the source give for `CC(=O)N(C)c1c(I)c(NC(=O)[C@H](O)[C@@H](O)[C@H](O)[C@H](O)CO)c(I)c(C(=O)N(C)N(C)C(=O)c2c(I)c(NC(=O)[C@H](O)[C@@H](O)[C@H](O)[C@H](O)CO)c(I)c(N(C)C(C)=O)c2I)c1I` [III, N,N'-bis(2,4,6-triiodo-3-N-methyl-N-acetylamino-5-N-gluconylamino-benzoyl)dimethyl hydrazide] here?
The Osmolality was 140 mosm/kg.

And the “LD50, I.V., in mice” value [2]?
The value was 9 g I/kg.
